Patent US20210038668A1, “TRADITIONAL CHINESE MEDICINE COMPOSITION FOR PREVENTING AND/OR TREATING ISCHEMIC REPERFUSION INJURY” (TASLY PHARMACEUTICAL GROUP CO., LTD., priority 2018, published 2021)

Columns and labels:
Assay type in all cases: in vivo, C57BL/6 mice
[1] = tested on: mice with carotid artery thrombus; assay: Neurological scoring, 15-score standard, mice; settings: 24 hours after administration; normal = 15, dead = 0; tPA 10 mg/kg alone; T541 20 mg/kg, T141 12 mg/kg, T582 15 mg/kg each + tPA 10 mg/kg
Procedure: Neurological scoring was conducted to each group of mice after reperfused for 24 hours based upon scoring standards (15 scores) (Garcia J H et al. Stroke. 1995; 26:627-634.) with slight modification:
Mice capacity of autonomic activity: mice were put into a 25×15 cm cage to record their motion trails within 3 minutes; mice incapable of moving basically were denoted as 0; mice with little activity and not touching any wall of the cage were denoted as 1; mice touching any […] were denoted as 2; mice touching three walls and above were denoted as 3;
Mice limbs symmetry experiment: mice tails were lifted to observe the motion trails of their bodies; mice with completely asymmetric bodies were denoted as 0; mice with almost asymmetrical bodies were denoted as 1; mice with moderately asymmetrical bodies were denoted as 2; mice with almost symmetric bodies were denoted as 3;
Measurement of open field test: free motion of mice was observed; mice without any motion were denoted as 0; mice circling around were denoted as 1; mice tilting to one side to make curvilinear motion were denoted as 2; mice making rectilinear motion were denoted as 3; […]
Mice neurological scoring: a sum of the individual score of the above five experiments is calculated; 15 scores denote normal mice and 0 denote dead mice.

[2] = tested on: cerebral cortex vessels and neurons in penumbra; assay: Transmission electron microscopy of cerebral cortex; settings: 24 h after administration
Procedure: Transmission electron microscope (IEM): after reperfused for 24 hours, anesthetized mice were perfused 3% glutaraldehyde for 40 minutes via ventriculus sinister at a rate of 3 ml/min; the brain was taken, and the mice right cortex was cut into small pieces (1 mm×1 mm×1 mm); small pieces were immobilized in 3% glutaraldehyde for 30 minutes at room temperature or stored over night at 4° C. The brain pieces were washed on a table containing sucrose for 3 times for 15 minutes, immobilized by osmic acid for 2 hours at room temperature, washed by 0.2; PBS for 3 times for 15 minutes, dehydrated for 15 minutes respectively by 30%, 50%, 70% and 90% acetone, and dehydrated for 15 minutes for 15 minutes by 100% acetone, then preimpregnated into a pre-embedding agent mixed by 100% acetone and embedding agent according to a ratio of 1:1; and kept over the night at 37° C.; then brain pieces were impregnated by a pure embedding agent for 24 hours at 37° C., and cured for 48 hours, then naturally cooled; afterwards, brain pieces were trimmed and cut into slices with the thickness of 60 nm. The slices were stained by uranyl acetate and lead citrate, and observed and shoot by a IEM (JEM 1230, JEOL, Tokyo, Japan).

[3] = tested on: Bcl-2; assay: Western blotting of Bcl-2 in brain tissue; settings: brain tissue 24 h after administration, sham = 1.00; tPA 10 mg/kg alone or + T541 20 mg/kg or ingredients at Table 7 doses
Source text: (§1) To compare the therapeutical effect on reperfusion injury caused by tPA thrombolysis between the traditional Chinese medicinal composition of the present invention and each ingredient (total saponins of Astragalus, the experiment was divided into the following group (tPA is combined with T541, individual ingredient thereof and compatibility of any two ingredients) specifically as follows: tPA+total saponins of Astragalus (tPA+HQ), tPA+ salvianolic acids (tPA+DS), tPA+Panax notoginseng saponins (tPA+SQ), tPA+ total saponins of Astragalus+salvianolic acids (tPA+HQ+DS), tPA+ total saponins of Astragalus+Panax notoginseng saponins (tPA+HQ+SQ), tPA+ salvianolic acids+Panax notoginseng saponins (tPA+DS+SQ) and tPA+T541. Normal saline served as an isovolumetric control. The usage number in each group is 6.
After reperfused for 24 hours, mice were perfused by normal saline; Western blotting analysis was conducted to the penumbra field of infarcted right cerebral cortex. […] Excessive supernatant was taken out and quantified by a BCA protein quantification liquor (ThermoScientific, US) to measure absorbance value at 560 nm of ELIASA and to calculate the protein concentration according to a standard curve. […] The density of electrophoretic strips was analyzed by an image analysis software Quantityone. […]

[4] = tested on: mitochondrial complex IV; assay: Mitochondrial complex IV activity in brain tissue; settings: brain tissue 24 hours after administration; tPA 10 mg/kg alone or + T541 20 mg/kg or ingredients at Table 7 doses
Source text: as §1
ELISA adsorption kit was used to measure the change on the content of MDA, 8-hydroxyl-2′-deoxyguanosine (8-OHdG), adenosine triphosphate (ATP), adenosine diphosphate (ADP) and adenosine monophosphate (AMP) in the penumbra field of brain tissue cortex of the mode, and the change on the activity of mitochondrial complexes I, II, IV and V. 6 samples were used to repeat the independent experiment for at least three times for each group of data.

[5] = tPA alone, T541 combined with tPA

## tPA: tissue-type plasminogen activator (tPA) for thrombolysis
[1]
  Neurological scoring, 15-score standard: 5.82 ± 0.52
[2]; tPA 10 mg/kg alone, T541 20 mg/kg + tPA
  TEM: vascular endothelium and perivascular edema (in words): vascular endothelium is rough, and has obvious edema gap with surrounding tissues
[2]; [5]
  TEM: endothelial cell adhesion structure of cerebral cortex vessels (in words): the close adhesion structure of cerebral cortex vessels in penumbra field is opened
  TEM: neurons of cerebral cortex in penumbra (in words): bodies of neuron shrink and deform
[3]
  Bcl-2: 1.51 ± 0.14
[4]
  Complex IV activity: 0.267 ± 0.016
